These results are taken from patent US4855497A, “Novel diamine derivatives” (Chugai Seiyaku Kabushiki Kaisha, priority 1985, dated 1989).

Data set [1] deals with Chloroform-Induced Arrythmia. In words: Activity against chloroform-induced arrythmia in rats (prevention of ventricular fibrillation). The settings on record: for Percent prevention (ventricular fibrillation), starved: starved rats. The data set is classed as in vivo, Sprague-Dowley male rats. On the procedure:
Activity Aganist Chloroform-Induced Arrythmia in Rats
The following procedures were substantially in accordance with the method of Erker and Baker (Arch. Int. Pharmacodyn., 243, 97-102, 1980). Aminophylline (20 mg/kg) was injected intramuscularly into two groups of Sprague-Dowley male rats (3-4 wk. old, 7 animals per group) weighing about 100 g on average, one group having been starved for 24 hours and the other group not starved. Thirty minutes after the injection, the animals were put into a 4,000-ml glass beaker with a lid that contained gauze impregnated with […] of chloroform. Fifty minutes later, the animals were recovered from the beaker and their chests were incised to check their hearts for the presence of ventricular fibrillation. The features of their cardiac rhythm were examined by the electrocardiogram. When no distinct fibrillation was observed, the heart was touched with tweezers. The heart was identified as fibrillar when rapid irregular twitchings occured on the surface of ventricles and continued for at least 5 seconds after chest incision or mechanical stimulation.
Selected compounds suspended in 3% gum arabic were administered in various doses to the rats either intraperitoneally (i.P.) or perorally (P.O.) 30 minutes prior to treatment with chloroform. The percent prevention of ventricular fibrillation was determined for each rat. Only a 3% gum arabic solution was administered to the control group.

For data set [2] the following is noted: cited from earlier work.
In data set [3] the test system is Ouabain-Induced Arrythmia. In words: Activity against ouabain-induced arrythmia in guinea pigs. The data set is classed as in vivo, Hartly male guinea pigs. The settings on record: ouabain 5 μg/kg/min; for Time required for ventricular extrasystole to occur: untreated 28.5 min; for Time required for ventricular fibrillation to occur: untreated 35.1 min; for Time required for cardiac arrest to occur: untreated 41.2 min. On the procedure: Activity Against Ouabain-Induced Arrythmia in Guinea Pigs
Hartly male guinea pigs (5-6 wk. old, two animals per group) weighing about 350 g on average were anesthetized by intraperitoneal administration of 1.2 g/kg of urethane. A polyethylene cannula was inserted into both the cervical vein and the carotid artery; the drug was administered through the cervical vein while the blood pressure was measured at the carotid artery. A selected test compound was administered 5 minutes before the sustained intravenous infusion of the ouabain solution (5 μg/kg/min) as described in J. Pharmacol. Exp. Ther., 136, 227, 1962). Identification of arrythmia was made by the ECG in the second induction period; the appearance of a QRS complex with sharply downward deflictions was used as an indication of ventricular arrythmia and observation was continued until ventricular fibrillation and cardiac arrest appeared. The results are shown in Table 4 in terms of the times required for ventricular extrasystole, ventricular fibrillation and cardiac arrest to occur.

Data set [4] deals with Acetylcholine. In words: Activity against acetylcholine (I): inhibition of acetylcholine-induced contraction of isolated ilea. Also noted: species or system SD/Slc male rats. Conditions: 10^-4 M; 10^-6 M acetylcholine; isolated rat ilea. On the procedure: Activity Against Acetylcholine (I)
SD/Slc male rats (10-mo. old, four animals per group) were clubbed dead and their ilea were immediately extracted. The ilea were suspended under a load of 1 g in a Krebs-Henseleit solution oxygenated with a mixture of 95% O2 +5% CO2 at 27° C., and the ileal reaction was measured isotonically.
The anti-cholinergic activity of each of the compounds tested was determined in terms of percent inhibition against the contractive reaction of 10^-6 M of acetylcholine (causing 60-70% of the maximum contractive reaction of acetylcholine).

In a further data set the test system is Blood Sugar Level. In words: Effect on blood sugar level. The settings on record: starved overnight. In kind it is in vivo, SD/Slc male rats. On the procedure: Effect on Blood Sugar Level
After starving SD/Slc male rats (body weight, 250 g; 6 animals per group) overnight, 20-μl blood samples were drawn from the tail vein of each rat while it was not anesthetized. Records were taken of the sugar level in each blood sample. A selected compound of the present invention was suspended in 3% gum arabic and the suspension was administered perorally to each rat in an amount of 50 or 200 mg/kg. At 2, 4 and 6 hours of the administration, blood samples were taken and their blood sugar levels were measured. Measurements of blood sugar levels were conducted with a New Blood Sugar Test (Boehringer, Mannheim).
To the control group, a 3% gum arabic solution was administered, and diisopyramide was administered as a comparative drug.

Data set [5] relates to Acetylcholine. In words: Activity against acetylcholine (II): inhibition of acetylcholine-induced saliva excretion. In kind it is in vivo, Beagle dogs. The settings on record: dose 100 (g), intra-arterially, 1 min before acetylcholine. On the procedure: Activity Against Acetylcholine (II)
Beagle dogs were anesthetized by intravenous administration of pentobarbital (35 mg/kg). The following experiment was conducted in accordance with the method of Sato et al. (Tohoku J. Exp. Med., 108, 377-388, 1982). The left lower jaw of each animal was incised to identify the submandibular gland, the duct through which saliva was excreted from that gland, and the artery nourishing the same gland. A polyethylene tube was first inserted into the excretory duct. Then, a cannula was inserted into the submandibular gland controlling artery and said gland was perfused with the arterial blood drawn from the femoral artery. The tube from the duct was connected to a drop counter and the number of drops of excreted saliva was recorded. The excretion of saliva was induced by intra-arterial administration of acetylcholine.
One minute before the acetylcholine administration, […] (0.1 ml) of a selected compound was administered intra-arterially and its ability to inhibit saliva excretion was examined.

The subject of data set [6] is Aconitine-Induced Arrythmia. In words: Activity against aconitine-induced arrythmia in rats. The data set is classed as in vivo, Sprague-Dowley male rats. Conditions: aconitine 1 μg/kg/min; for Time required for ventricular extrasystole to occur: untreated 14.3 min; for Time required for ventricular fibrillation to occur: untreated 35.3 min. On the procedure:
Activity Against Aconitine-Induced Arrythmia in Rats
Using Sprague-Dowley male rats (9-10 wk. old, two animals per group) weighing about 350 g on average, the following experiment was conducted substantially in compliance with the method of Vargftig et al. (Europ. J. Pharmacol., 6, 49, 1969).
The animals were anesthetized by intraperitoneal administration of 1 g/kg of urethane. A polyethylene cannula was inserted into both the femoral artery and vein of each animal; the drug was administered through the femoral vein while the blood pressure was measured at the femoral artery.
While the aconitine solution was continuously infused into the vein at a rate of 1 μg/kg/min, a selected compound was administered intravenously at 5-minute intervals. In order to prevent the aconitine-induced dyspnea from interfering with the experimental results, 0.2 mg/kg of d-tubocurarine was administered intravenously to each animal, which then was subjected to artificial respiration through a cannula inserted into the trachea (80 breathings/min, with 4 ml of air supplied by a single ventillation).
Identification of arrythmia was made by the ECG in the second induction period; the appearance of a QRS complex with sharply downward deflections was used as an indication of ventricular arrythmia and observation was continued until ventricular fibrillation appeared. The results are shown in Table 3 in terms of the times required for ventricular extrasystole and ventricular fibrillation to occur.

For data set [7], the system named is sleeping induced by hexobarbital. In words: Effect on the time of sleeping induced by hexobarbital. The data set is classed as in vivo, ddY/Slc male rats. On the procedure:
Effect on the Time of Sleeping Induced by Hexobarbital
A selected compound of the present invention was administered perorally to ddY/Slc male rats (5-6 wk. old, 10 animals per group) in an amount of 50 or 100 mg/kg. One hour later, […] of hexobarbital was administered intraperitoneally to each animal, thereby causing the loss of orthogonal reflex. The time required for the recovery of orthogonal reflex was measured for each animal.
As comparative drugs, 50 or 100 mg/kg of disopyramide and 5 mg/kg of diazepam were administered perorally.

SMILES strings stand for the structures. A value given as a limit tells only on which side of the number the result lay.

In the case of `CCN(CC)CC(=O)Nc1c(C)cccc1C` [Lidocaine, reference compound], the “Percent prevention (ventricular fibrillation), starved” value (“Percent prevention” below) in data set [1] (20 mg/kg i.P., 30 min prior to chloroform) amounted to 77.1%. The “drug level in blood” value in data set [2] (peroral, clinical) was “too low to attain the desired effectiveness”.

As for `Cc1cccc(C)c1NC(=O)CCNCCN(C(C)C)C(C)C` [Compound No. 1, 3-(diisopropylaminoethylamino)-2',6'-dimethylpropionanilide], in data set [3] (5 mg/kg via cervical vein), the “Time required for ventricular extrasystole to occur” value was found to be 42.1 min, the “Time required for ventricular fibrillation to occur” value was 45.4 min and the “Time required for cardiac arrest to occur” value is 51.3 min. Moreover, in the data set on Acetylcholine [4], the “Percent inhibition (contractive reaction of acetylcholine)” value is 20%. Besides, in the data set with Blood Sugar Level (50 mg/kg perorally), the “Blood sugar level, 0 hr (mean ± S.E.)” value was determined as 68.4 ± 4.0 mg/dL; the “Blood sugar level, 2 hr (mean ± S.E.)” value was found to be 63.0 ± 4.1 mg/dL; the “Blood sugar level, 4 hr (mean ± S.E.)” value was determined as 58.1 ± 2.2 mg/dL; the “Blood sugar level, 6 hr (mean ± S.E.)” value was 59.9 ± 2.6 mg/dL. In the data set with Blood Sugar Level (200 mg/kg perorally), the “Blood sugar level, 0 hr (mean ± S.E.)” value amounted to 83.7 ± 3.0 mg/dL; the “Blood sugar level, 2 hr (mean ± S.E.)” value stood at 55.4 ± 5.7 mg/dL; the “Blood sugar level, 4 hr (mean ± S.E.)” value came out at 73.4 ± 7.2 mg/dL; the “Blood sugar level, 6 hr (mean ± S.E.)” value is 71.2 ± 3.2 mg/dL. Besides, in data set [1] (Rattus norvegicus, ip, 0.5 h, not starved rats, 25 mg/kg i.P., 30 min prior to chloroform, read-out: Percent prevention (ventricular fibrillation), not starved), the responders at 25 mg/kg amounted to 85.7%. Besides, the responders at 1 mg/kg in data set [1] (Rattus norvegicus, po, 0.5 h, not starved rats, 1 mg/kg P.O., 30 min prior to chloroform, read-out: Percent prevention (ventricular fibrillation), not starved) is 85.7%. In addition, the “Percent prevention” value in data set [1] (1 mg/kg P.O., 30 min prior to chloroform) was 85.7%. Moreover, in the data set with Acetylcholine [5], the “Percent inhibition (saliva excretion)” value is listed as 0%. In data set [6] (5 mg/kg intravenously), the “Time required for ventricular extrasystole to occur” value turned out to be 45.2 min and the “Time required for ventricular fibrillation to occur” value is reported as > 120.0 min.

In the case of `CN1C(=O)CN=C(c2ccccc2)c2cc(Cl)ccc21` [Diazepam], the “Time of sleeping (mean ± S.E.)” value in data set [7] (5 mg/kg perorally, ** p < 0.05 vs untreated (53.9 ± 2.7)) is listed as 136.4 ± 5.8 min.

With `CC(C)N(CCC(C(N)=O)(c1ccccc1)c1ccccn1)C(C)C` (centres unmarked) [Disopyramide, reference compound], in data set [3] (10 mg/kg via cervical vein), the “Time required for ventricular extrasystole to occur” value is recorded as 41.1 min, the “Time required for ventricular fibrillation to occur” value is given as 54.3 min and the “Time required for cardiac arrest to occur” value was 59.6 min. In addition, the “Percent inhibition (contractive reaction of acetylcholine)” value in the data set on Acetylcholine [4] stood at 89%. Further, in the data set on Blood Sugar Level (50 mg/kg perorally), the “Blood sugar level, 0 hr (mean ± S.E.)” value was 75.2 ± 5.9 mg/dL; the “Blood sugar level, 2 hr (mean ± S.E.)” value came to 46.9 ± 1.7 mg/dL; the “Blood sugar level, 4 hr (mean ± S.E.)” value was 41.9 ± 2.9 mg/dL; the “Blood sugar level, 6 hr (mean ± S.E.)” value stood at 45.8 ± 2.0 mg/dL. Moreover, in the data set on Blood Sugar Level (200 mg/kg perorally), the “Blood sugar level, 0 hr (mean ± S.E.)” value stood at 64.5 ± 5.6 mg/dL; the “Blood sugar level, 2 hr (mean ± S.E.)” value worked out at 41.7 ± 3.1 mg/dL; the “Blood sugar level, 4 hr (mean ± S.E.)” value came out at 29.7 ± 3.2 mg/dL; the “Blood sugar level, 6 hr (mean ± S.E.)” value is 36.9 ± 2.6 mg/dL. Further, the “Time of sleeping (mean ± S.E.)” value in data set [7] (50 mg/kg perorally, H3PO4 salt, untreated 53.9 ± 2.7) is reported as 59.8 ± 3.3 min. Further, the “Time of sleeping (mean ± S.E.)” value in data set [7] (100 mg/kg perorally, H3PO4 salt, untreated 53.9 ± 2.7) was 53.5 ± 2.4 min. In addition, the responders at 10 mg/kg in data set [1] (Rattus norvegicus, po, 0.5 h, read-out: Percent prevention (ventricular fibrillation), not starved) is 37.6%. The “Percent prevention” value in data set [1] (10 mg/kg P.O., 30 min prior to chloroform) is listed as 49.6%. Also, the “Percent inhibition (saliva excretion)” value in the data set on Acetylcholine [5] turned out to be 41.7%. Besides, in data set [6] (10 mg/kg intravenously), the “Time required for ventricular extrasystole to occur” value amounted to 22.6 min and the “Time required for ventricular fibrillation to occur” value was determined as 78.2 min. For the same compound, the “action on the cardiac muscles” value in data set [2] (clinical) is reported as “inhibitory action on the cardiac muscles”. In addition, the undesirable side effects result in data set [2] (clinical, presumably from anti-cholinergic action) is “hydrodipsia, anuresis, constipation, vertigo, blurring of vision and vomiting”. Besides, the incidence of anuresis result in data set [2] (patients with prostatomegaly and neurotic bladders due to diabetes) is reported as “High incidence of anuresis”. Also, in data set [2] (peroral, clinical), the “activity in peroral administration” value was “sustained activity”.
